Results taken from ChEMBL document CHEMBL3822449, “[Dmt(1)]DALDA analogues modified with tyrosine analogues at position 1” (Bioorg Med Chem Lett, 2016).

What was measured:
[1] = Antioxidant activity assessed as DPPH radical scavenging activity incubated for 30 mins; assay type: physicochemical; conditions: 0.5 h
[2] = target: Delta-type opioid receptor (Mus musculus, UniProt P32300); assay: Agonist activity at delta opioid receptor in albino mouse vas deferens assessed as inhibition of electrically-stimulated muscle contraction; assay type: tissue-based
Chain of Delta-type opioid receptor (P32300 whole entry): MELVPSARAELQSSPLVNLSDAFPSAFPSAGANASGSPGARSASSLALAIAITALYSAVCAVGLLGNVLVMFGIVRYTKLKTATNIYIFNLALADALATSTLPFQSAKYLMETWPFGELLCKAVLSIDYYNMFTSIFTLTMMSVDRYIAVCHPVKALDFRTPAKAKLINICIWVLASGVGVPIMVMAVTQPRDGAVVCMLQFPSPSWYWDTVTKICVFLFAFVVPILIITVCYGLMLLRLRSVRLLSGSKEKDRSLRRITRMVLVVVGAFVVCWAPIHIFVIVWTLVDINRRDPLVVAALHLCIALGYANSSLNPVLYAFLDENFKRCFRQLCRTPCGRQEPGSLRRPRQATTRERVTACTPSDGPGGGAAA

Cc1cc(O)cc(C)c1C[C@H](N)C(=O)N[C@H](CCCNC(=N)N)C(=O)N[C@@H](Cc1ccccc1)C(=O)N[C@@H](CCCCN)C(N)=O
Activity [1]: 31.64%

NCCCC[C@H](NC(=O)[C@H](Cc1ccccc1)NC(=O)[C@@H](CCCN=C(N)N)NC(=O)[C@@H](N)Cc1ccc(O)cc1)C(N)=O
IC50 [2]: 0.781 µM
